Here are results for 32 molecules from the METLIN SMRT retention time set (Domingo-Almenara et al. 2019).

The nature of this data set: gradient 5% acetonitrile 3 min, to 50% in 2 min, to 85% in 15 min, held 3 min, 100 µL/min. As to conditions: column: Zorbax Extend-C18 2.1 x 50 mm; eluents: water / acetonitrile, 0.1% formic acid. The method in brief: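 In both positive and negative ionization mode, a quadrupole time-of-flight mass spectrometer coupled to HPLC analyzed pure standards run in mixtures of ~100 molecules. The Zorbax Extend-C18 column (2.1 × 50 mm, 1.8 μm) was operated at 100 μL/min with water and acetonitrile, each containing 0.1% formic acid. The dead volume was 40 μL and the dwell volume 900 μL. Retention time came from adduct peaks that were computationally picked and individually inspected by hand.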
Regarding `Cc1onc(-c2ccccc2Cl)c1C(=O)NCCN(C)C`, the RP-LC retention time was found to be 591 s.
Molecule `O=C(COc1ccc(-c2cnc3ccccc3n2)cc1)Nc1ccccn1` gave an RP-LC retention time of 852 s.
In the case of `Cc1oc(-c2ccc(C(=O)NCCN3CCCC3)cc2)nc1COc1ccccc1`, the RP-LC retention time was determined as 698 s.
`COC(=O)c1ncn2c1C(=O)N(C1CC1)C(C)(C(=O)NCc1cccc(C)c1)C2` (configuration not stated) showed an RP-LC retention time of 658 s.
Consider `Cc1c(S(=O)(=O)NCc2ccc3c(c2)CCN3C(=O)C(C)C)cnn1C(F)F`, for which the RP-LC retention time came out at 801 s.
For `O=C(CN1C(=O)c2ccccc2C1=O)NCCS(=O)(=O)N1CCc2ccccc2C1` the value was 744 s; for `Cc1ccc(-c2csc(Cc3nc(-c4ccc5c(c4)OCO5)no3)n2)cc1C`, 1280 s; for `O=C(CC1CCCC1)N1CCN(CCn2cccn2)CC1`, 560 s.
For `CC(C)Cc1ccc(S(=O)(=O)N2CCC(c3nc4cccnc4n3C)C2)cc1` (configuration not stated), the RP-LC retention time is 929 s.
In turn, `CN(Cc1ccccc1)C(=O)c1nnc(-c2ccc(S(=O)(=O)N3CCCCC3)cc2)o1` registered an RP-LC retention time of 1040 s.
With `Cc1ccc(C(=O)N2C(C(=O)NCc3ccco3)COC23CCN(C(=O)C(C)(C)C)CC3)cc1` (configuration not stated), the RP-LC retention time stood at 756 s.
With `CC(C)c1noc(-c2cc(=O)n(CC(=O)NCc3ccccc3)c3ccccc23)n1` the figure was 940 s.
Turning to `O=C1COc2cc(S(=O)(=O)N3CCC(C(=O)N4CCc5ccccc54)CC3)c(Cl)cc2N1`, the RP-LC retention time worked out at 844 s.
With `CCOC(=O)c1ccc(Nc2c(-c3ccc(OC)cc3)nc3cnccn23)cc1` the figure was 641 s; with `Cc1ccc(-n2ncc3c(N4CCN(C)CC4)ncnc32)cc1Cl`, 607 s.
Consider `COCCNC(=O)Cn1c(C(F)(F)F)nc2cc3c(cc21)OCCO3`, for which the RP-LC retention time worked out at 641 s.
In turn, `Cc1ccc(CNC(=O)C2(C)Cn3nc(C(=O)NCc4ccccc4C)cc3C(=O)N2C)cc1` (configuration not stated) yielded an RP-LC retention time of 823 s.
`COc1cccc(N2CCN(c3cc(SCC(=O)NCC4CCCO4)ncn3)CC2)c1` (configuration not stated) had an RP-LC retention time of 769 s.
The molecule `CCc1nc(N)n(CC(=O)Nc2cccc(C)c2C)c(=O)c1C` yielded an RP-LC retention time of 638 s.
With `COc1ccc2c(c1)C1(CCN(C(=O)C(C)C)C1)C(=O)N2C` (configuration not stated), the RP-LC retention time was determined as 701 s.
With `Cn1c(=O)c(=O)n(C)c2cc(N3CCOCC3)c(NC(=O)c3ccco3)cc21` the figure was 663 s; with `Cc1cc2c(c(=O)n(-c3ccccc3)c(=O)n2CC(=O)Nc2cccc(C(F)(F)F)c2)n1C`, 904 s; with `O=C(Nc1ccc2c(c1)OCCO2)N1CCC(Cc2nncn2-c2ccccc2)CC1`, 706 s.
Turning to `CCc1ccccc1NC(=O)N(C)CC1CCOCC1`, the RP-LC retention time came to 730 s.
Take `Cc1noc(-c2nn(C)c3c2CN(C(=O)Nc2cccc(F)c2)CC3)n1`: the RP-LC retention time was determined as 744 s.
With `COc1ccc(-c2nc3cc(C)ccn3c2NC(=O)COc2ccc(Cl)cc2Cl)cc1` the figure was 780 s.
For the molecule `Cc1cc(C)cc(C(=O)N2CCCC(C(=O)NCCc3cccs3)C2)c1` (configuration not stated), the RP-LC retention time is 850 s.
`Cc1cccc(-n2c(=O)c3sccc3n(Cc3nc(-c4ccc(OC(C)C)cc4)no3)c2=O)c1` had an RP-LC retention time of 1120 s.
Take `CN1C(=O)C2(CCN(C(=O)c3cccc(Cl)c3)C2)c2ccccc21` (configuration not stated): the RP-LC retention time is 811 s.
`CCC(C(=O)Nc1cnn(-c2ncc(N(C)C)cn2)c1)c1ccccc1` (configuration not stated) had an RP-LC retention time of 811 s.
For `COCCc1noc(C2Cc3ccccc3N2C(=O)NCc2cccc(OC)c2)n1` (configuration not stated) the value was 618 s; for `O=C(c1cccs1)N1CCN(c2nnc3ccccn23)CC1`, 608 s.
